Experiment: Water-solubility of dimpropyridaz
Format: physicochemical
Conditions: printed as at 20° C. ... at 25° C.
Experimental: Dimpropyridaz is a pesticide that has a water-solubility at 20° C. of approximately 4-5 wt % at 25° C. The water-solubility of dimpropyridaz is comparably high and so Ostwald-ripening represents a crucial issue for Dimpropyridaz suspension concentrates.

Compound: CCN(C(=O)c1cnn(C(C)C(C)C)c1C)c1ccnnc1 (racemic) [Dimpropyridaz, 1-[1,2-dimethylpropyl]-N-ethyl-5-methyl-N-pyridazin-4-yl-1H-pyrazole-4-carboxamide]
- water-solubility: 4-5 wt %
